Experimental data published in patent publication US20240130367A1, “PLANT GROWTH PROMOTERS” (University of Durham, priority 2020, published 2024).
Structures can show the parent of a compound that is named as a salt.

Test system: Arabidopsis thaliana wild-type
Test: Hypocotyl growth assay under reduced light
Assay type: in vivo
Details: hypocotyl, 100 μM; for New length (cm) / New Length: three days; for New length (cm): trials 1, 2, 3 and SAM each with own DMSO control; for New Length: in cm
Text: Arabidopsis thaliana wild-type seeds were from laboratory stocks of Columbia (Col-0) and Landsberg erecta (Ler-0) accessions. Arabidopsis thaliana is a dicot. The mutants of gid1 (J. Griffiths, et al., Plant Cell, 2006, 18, 3399-3414) were obtained from Dr. Steve Thomas (Rothamsted Research, UK) and were in a Col-0 background, whilst the della quintuple mutant (S. H. Feng et al. Nature, 2008, 451: 475-479) and ga1-5 (I. Fridborg et al. Plant Cell, 1999, 11: 1019-1031) were in a Ler-0 background and was obtained from the Nottingham Arabidopsis Stock Centre (NASC). The A. thaliana line expressing RGA-GFP (A. L. Silverstone et al. The Plant Cell, 2001, 13: 1555-1565), Col-0 background was obtained from Prof. Keith Lindsey (Durham University, UK). Seeds were plated out 1×MS medium pH 5.8 (T. Murashige and F. Skoog (1962) Physiologia Plantarum 15: 473-497) in petri dishes with a concentration of either 0.8% or 1.2% (w/v) phytoagar for root and hypocotyl measurements, respectively. After sowing seeds were stratified on plates at 4° C. for a minimum of 48 h to achieve synchronous germination. Seedlings were grown for either 7 or 2 days for root and hypocotyl measurements, respectively, prior to treatment with chemicals. For hypocotyl measurements, seeds were sown on nylon mesh (acid resistant monofilament nylon filter mesh fabric; GZ, model number H20M). Seedling were grown in a Percival (CU-36L5D, CLF plant climatics, Emersacker, Germany) with a photoperiod of 16/8 h with a light intensity of either 150 μmol m^2 s^−1 or 50 μmol m^2 s^−1 for root and hypocotyl measurements, respectively, and a temperature of 20±1° C.
After growing as described above seedlings for root assays were transferred to 1.2% (w/v) agar plates containing each chemical at a final concentration of 100 μM (the addition of the chemicals was performed when media had cooled to 50° C. after autoclaving), with an equivalent concentration of DMSO as control. At this stage the positions of the root tips were marked on the petri dish. The plants were subsequently grown vertically and after a further 5 days images of the plates were scanned and the root growth that occurred during the 5 days on chemicals was measured using ImageJ software. 18 seedlings were measured for each treatment. For hypocotyl measurements the assay performed was adapted from de Lucas et al. (2008, supra). After growing seedlings as described above, the nylon mesh was transferred across to the plates containing chemical. The plants were then placed in vertical orientation for three days under reduced light intensity (by covering plates with 2 layers of 80 g·m^2 white paper) before the plates were scanned. The measurement of hypocotyl was done using ImageJ software. At least 15 seedlings were measured for each plate.
To determine the mechanism of A1 action via the GA/DELLA signaling pathway, the response of A1 in a series of GA synthesis/signalling mutants was investigated. For these assays the focus was on hypocotyl growth, because it is well established that DELLA can inhibit the binding of PIFs to their target promoter leading to a reduction in GA-regulated hypocotyl growth (A. Castillon, H. Shen and E. Huq (2007) Trends in Plant Science, 12: 514-521.; de Lucas et al. 2008, supra; S. H. Feng et al. 2008, supra. To establish the use of A1 in this assay, hypocotyl growth was first tested by growing the seedlings on agar plates containing A1, with GA and PAC used as positive and negative controls, respectively, for three days in reduced light conditions to achieve a balance between maximum and minimum hypocotyl growth. […] Having established the hypocotyl assay, DELLA-dependence of the A1 effect was then confirmed genetically. To test this, a mutant line that lacks all DELLA (GAI, RGA, RGL1, RGL2 and RGL3) function was used.
The effect of additional compounds on hypocotyl growth was investigated using the same methods as described above (100 μM of each compound was used). […]

[1] = relative to the DMSO control of the same trial

SMILES | New length (cm) | Relative growth (cm) [1] | New Length | Relative growth (cm) (relative to DMSO control)
NCCNS(=O)(=O)c1cccc2cccnc12 [JAR13, N-(2′-aminoethyl)quinoline-8-sulfonamide] | 0.212 | −0.09787 | – | –
Cl.NCCNS(=O)(=O)c1cccc2ncccc12 [JAR30, N-(2′-aminoethyl)-quinoline-5-sulfonamide Hydrogen Chloride] | 0.333 | 0.417 | – | –
Cl.NCCNS(=O)(=O)c1cccc2ccncc12 [JAR31, N-(2′-aminoethyl)isoquinoline-8-sulfonamide Hydrogen Chloride] | 0.274 | 0.166 | – | –
Cl.NCCNS(=O)(=O)c1cccc2cnccc12 [JAR32, N-(2′-aminoethyl)isoquinoline-5-sulfonamide Hydrogen Chloride] | 0.202 | – | – | –
COc1ccc(S(=O)(=O)NCCN)c2ccccc12.Cl [JAR33, N-(2′-aminoethyl)-4-methoxynaphthalene-1-sulfonamide Hydrogen Chloride] | 0.2986 | 0.2705 | – | –
COc1ccc2ccccc2c1S(=O)(=O)NCCN.Cl [JAR36, N-(2′-aminoethyl)-2-methoxynaphthalene-1-sulfonamide Hydrogen Chloride] | 0.329 | 0.4 | – | –
Cl.NCCNS(=O)(=O)c1ccc2c3c(cccc13)C(=O)N2 [JAR67, N-(2′-aminoethyl)-1,8-naphtholactam-5-sulfonamide Hydrogen Chloride] | 0.187 | −0.2241 | – | –
CCCCCOc1ccc2ccccc2c1S(=O)(=O)NCCN.Cl [JAR68, N-(2′-aminoethyl)-2-pentoxynaphthalene-1-sulfonamide Hydrogen Chloride] | 0.197 | −0.1826 | – | –
COc1ccccc1S(=O)(=O)NCCN.Cl [JAR69, N-(2′-aminoethyl)-2-methoxybenzene-1-sulfonamide Hydrogen Chloride] | 0.316 | 0.3112 | – | –
CCCCCOc1ccc(S(=O)(=O)NCCN)c2ccccc12.Cl [JAR70, N-(2′-aminoethyl)-4-pentoxynaphthalene-1-sulfonamide Hydrogen Chloride] | 0.173 | −0.2822 | – | –
COc1ccc(S(=O)(=O)NCCN)cc1.Cl [JAR71, N-(2′-aminoethyl)-4-methoxybenzene-1-sulfonamide Hydrogen Chloride] | 0.331 | 0.3734 | – | –
CCCCCCOc1ccc(S(=O)(=O)NCCN)cc1.Cl [JAR72, N-(2′-aminoethyl)-4-hexoxybenzene-1-sulfonamide Hydrogen Chloride] | 0.195 | −0.1909 | – | –
CCCCCCOc1ccccc1S(=O)(=O)NCCN.Cl [JAR73, N-(2′-aminoethyl)-2-hexoxybenzene-1-sulfonamide Hydrogen Chloride] | 0.202 | −0.1618 | – | –
O=S(=O)(NCCO)c1cccc2ccccc12 [JAR88, N-(2-hydroxyethyl)naphthalene-1-sulfonamide] | 0.2827 | −0.2975 | – | –
CCOCCOc1c(Cl)cc(S(=O)(=O)NCCN)c2ccccc12.Cl [JAR141, N-(2-azaniumylethyl)-3-chloro-4-(2-ethoxyethoxy)naphthalene-1-sulfonamide Chloride] | 0.4387 | 0.09026 | – | –
Cc1ccc(S(=O)(=O)NCCN)cc1.Cl [JAR142, 4-methyl-N-(2′-aminoethyl)benzene-1-sulfonamide Hydrogen Chloride] | 0.5868 | 0.4584 | – | –
CNc1ccc(S(=O)(=O)NCCN)c2nonc12.Cl [JAR143, 7-(methylamino)-N-(2′-aminoethyl)-2,1,3-benzoxadiazole-4-sulfonamide Hydrogen Chloride] | 0.2847 | −0.2925 | – | –

SMILES | New length (cm) | Relative growth (cm) [1] | New Length | Relative growth (cm) (relative to DMSO control)
CCOCCOc1ccc2ccccc2c1S(=O)(=O)NCCN.Cl [JAR144, N-(2′-aminoethyl)-2-(2″-ethoxyethoxy)naphthalene-1-sulfonamide Hydrogen Chloride] | 0.6007 | 0.4927 | – | –
CCOCCOc1ccc(S(=O)(=O)NCCN)c2ccccc12.Cl [JAR145, N-(2′-aminoethyl)-4-(2″-ethoxyethoxy)naphthalene-1-sulfonamide Hydrogen Chloride] | 0.6424 | 0.5965 | – | –
NCCNS(=O)(=O)c1cccc(F)c1 [JAR478, N-(2-aminoethyl)-3-fluorobenzene-1-sulfonamide Hydrochloride] | – | – | 0.8424 | 0.2289
Cl.NCCNS(=O)(=O)c1ccc(-c2ccccc2)cc1 [JAR479, N-(2′-aminoethyl)-[1,1″-biphenyl]-4-sulfonamide Hydrochloride] | – | – | 0.7771 | 0.1335
NCCNS(=O)(=O)c1ccccc1F [JAR480, N-(2′-aminoethyl)-2-fluorobenzene-1-sulfonamide Hydrochloride] | – | – | 0.8424 | 0.2289
NCCCNS(=O)(=O)c1cccc2ccccc12 [JAR481, N-(3′-aminopropyl)naphthalene-1-sulfonamide Hydrochloride] | – | – | 0.8072 | 0.1775
NCCNS(=O)(=O)c1cccc2c(Cl)cccc12 [JAR482, N-(2′-aminoethyl)-5-chloronaphthalene-1-sulfonamide Hydrochloride] | – | – | 0.5888 | –
NCCNS(=O)(=O)c1ccc([N+](=O)[O-])cc1 [JAR483, N-(2′-aminoethyl)-4-nitrobenzene-1-sulfonamide Hydrochloride] | – | – | 0.8707 | 0.2701
CC(C)(C)c1ccc(S(=O)(=O)NCCN)cc1 [JAR484, N-(2′-aminoethyl)-4-tent-butylbenzene-1-sulfonamide Hydrochloride] | – | – | 0.8713 | 0.271
Cl.NCCNS(=O)(=O)C1CCCCC1 [JAR488, N-(2′-aminoethyl)cyclohexanesulfonamide Hydrochloride] | – | – | 0.668 | −0.02555
CCCc1ccc(S(=O)(=O)NCCN)cc1 [JAR489, N-(2-aminoethyl)-4-propylbenzene-1-sulfonamide] | – | – | 0.9133 | 0.3323
COc1cccc(S(=O)(=O)NCCN)c1.Cl [JAR490, N-(2′-aminoethyl)-3-methoxybenzene-1-sulfonamide Hydrochloride] | – | – | 0.8299 | 0.2107
CN(CCN)S(=O)(=O)c1cccc2ccccc12 [JAR491, N-(2′-aminoethyl)-N-methylnaphthalene-1-sulfonamide] | – | – | 0.8285 | 0.2085
CNCCNS(=O)(=O)c1cccc2ccccc12 [JAR493, N-[2′-(methylamino)ethyl]naphthalene-1-sulfonamide Hydrochloride] | – | – | 0.897 | 0.3085
C=CCN(CCN)S(=O)(=O)c1cccc2ccccc12.Cl [SAM1, N-(2′-aminolethyl)-N-(prop-2″-en-1′-yl)naphthalene-1-sulfonamide Hydrogen Chloride] | 0.193 | −0.0203 | – | –
Cl.NCCN(Cc1ccccc1)S(=O)(=O)c1cccc2ccccc12 [SAM2, N-(2′-aminoethyl)-N-benzylnaphthalene-1-sulfonamide Hydrogen Chloride] | 0.191 | −0.03046 | – | –
